Assay results taken from patent US9320748B2, “Immunologically useful arginine salts” (Novartis AG, priority 2012, dated 2016).
Values joined by “and” are separate entries in the source; they are usually repeats but may differ in a detail not shown here. Equal entries are not always repeated. Structures can show the parent of a compound that is named as a salt.

Experiments:
[1] = Photo-stability of bulk solid; assay type: physicochemical; conditions: irradiated 1.2 million lux-hours, 40° C., 36 hours
Description: The L-arginine salt formed via the above method was tested for thermal- and photo-stability. For comparative purposes, the free base and the ammonium salt were also tested.
The bulk ammonium and arginine salts and the bulk free base of the compound of formula (I) were tested for photo-stability by being irradiated (1.2 million lux-hours), at 40° C. for a period of 36 hours.

[2] = Photo-stability in 50 mM phosphate buffer solution; assay type: physicochemical; conditions: 50 mM phosphate buffer pH 6.8; irradiated 1.2 million lux-hours, 40° C., 36 hours
Description: The L-arginine salt formed via the above method was tested for thermal- and photo-stability. For comparative purposes, the free base and the ammonium salt were also tested. The arginine salt and the bulk free base of the compound of formula (I) were also tested for photo-stability in a solution of 50 mM phosphate buffer (pH 6.8) by being irradiated (1.2 million lux-hours), at 40° C. for a period of 36 hours. […] The ammonium salt was not tested.

[3] = Thermal-stability at physiological pH; assay type: physicochemical; conditions: for degradation (thermal-stability): physiological pH (7.4), 80° C., 7 days
Description: The L-arginine salt formed via the above method was tested for thermal- and photo-stability. For comparative purposes, the free base and the ammonium salt were also tested. The bulk ammonium and arginine salts and the bulk free base of the compound of formula (I) were also tested for thermal-stability at physiological pH (7.4) by heating at 80° C. for 7 days. […] This renders the ammonium salt unsuitable for use in pharmaceutical formulation and long term storage.

[4] = Dynamic vapour sorption (DVS) water sorption; assay type: physicochemical; conditions: 90% relative humidity
Description: Dynamic vapour sorption (DVS) experiments were conducted on the L-arginine salt obtained via the above method. […] The free base is also shown for comparison (●). DSC analysis of the arginine salt following DVS treatment was also conducted and the results pre- (♦) and post-DVS (▪) treatment are shown in FIG. 4. The free base is also shown for comparison (●). […] No form change is noted by the XRPD.

[5] = Adsorption to aluminium phosphate adjuvant; assay type: physicochemical
Description: Adsorption of a L-arginine salt of the compound of formula (I) to a commercially-available aluminium phosphate adjuvant yielded an adsorption efficiency of 97% (as found by recovering the compound of formula (I) on desorption). […] However, the adsorption remained >90% when the aluminium phosphate adjuvant was treated with 10 mM potassium phosphate.
One formulation was prepared with 0.4 mg/ml of the compound of formula (I) of the L-arginine salt and 3 mg/ml of aluminium phosphate (expressed as Al^3+ concentration), 10 mM of histidine buffer (pH 6.5). Aluminium phosphate was treated overnight with various concentrations of potassium phosphate (10 mM, 50 mM, 100 mM, 250 mM and 500 mM) before the compound of formula (I) of the arginine salt was incubated with the aluminium phosphate.

[6] = Adsorption to aluminium hydroxide (RP-HPLC); assay type: physicochemical; conditions: 1 mg/ml on 3 mg/ml aluminium hydroxide
Description: The adsorption efficiency of the compound was determined by RP-HPLC as being 99%.

[7] = Adsorption to calcium phosphate adjuvant; assay type: physicochemical; conditions: pH 6.4, no histidine buffer, 1.12 mg/ml Ca2+
Description: Adsorption of a L-arginine salt of the compound of formula (I) to a commercially-available calcium phosphate adjuvant was studied at pH 6.4, without histidine buffer. Two formulations are prepared, both with 1.12 mg/ml Ca^2+ but with either 0.25 mg/ml or 0.125 mg/ml of the arginine salt. Adsorption was around 90% for both formulations.

[8] = system: respiratory syncytial virus (RSV); assay: Anti-RSV titers after immunisation with trimeric F glycoprotein; assay type: in vivo, Balb/C mice; conditions: 3 weeks after first dose; 1, 5, 50 μg SMIP adsorbed to Al—H, 3 μg F glycoprotein
Description: Trimeric F glycoprotein (3 μg) of respiratory syncytial virus (RSV) is formulated with the compound of formula (I) as a free base or as the arginine salt (1 μg, 5 μg, 50 μg) adsorbed to Al—H. For comparison the IC31™ adjuvant is also tested. Balb/C mice (6 per group) are immunized at days 0 and 21 and immune responses are assessed.

[9] = in vivo; conditions: mouse, im, 4 mg/kg
Description: A single dose of two different formulations (one containing the free base and the other the L-arginine salt of the compound of formula (I)) adsorbed to Al—H in 10 mM histidine buffer and in the presence of 3 MenB antigens were administered intramuscularly to mice at a dose of 4 mg/kg.

[10] = Effect of Al—H adsorption on serum peak and injection-site residence; assay type: in vivo; conditions: adsorbed on Al—H versus non-adsorbed; mice and rats
Description: Adsorption of the compound of formula (I) on Al—H reduced its peak serum concentrations and increased residence times at sites of intramuscular injection, as found for mice and rats preclinical species. This contributes greatly on modifying and controlling the level of systemic exposure avoiding the potential problem of proinflammatory cytokines in the blood, improving safety and/or tolerability of the compounds of formula (I).

## Cc1cc(OCCOCCOCCP(=O)(O)O)ccc1CCc1cnc2c(N)nc3cc(CCC(=O)O)ccc3c2c1 [arginine salt, arginine salt of 3-(5-amino-2-(2-methyl-4-(2-(2-(2-phosphonoethoxyl)ethoxy)ethoxy)phenethyl)benzo[f][1,7]naphthyridin-8-yl)propanoic acid]
[1]
  degradation (photo-stability): 9.7%
[2]
  degradation (photo-stability in solution): 9.8%
[3]; high temperatures (80° C.), as in autoclaving
  stability at high temperatures, compared with other form: more stable than the ammonium salt
[3]
  degradation (thermal-stability): 0.1%
[4]
  water taken on (DVS): approximately 18%
[4]; 4 g sample
  water taken on (DVS): approximately 13.71%
[5]; aluminium phosphate pre-treated with 10 mM potassium phosphate, listed as L-arginine salt
  % Adsorption: 93 ± 1%
[5]; aluminium phosphate pre-treated with 50 mM potassium phosphate
  % Adsorption: 81.6 ± 0.1%
[5]; aluminium phosphate pre-treated with 100 mM potassium phosphate
  % Adsorption: 60 ± 2%
[5]; aluminium phosphate pre-treated with 250 mM potassium phosphate
  % Adsorption: 52 ± 0.1%
[5]; aluminium phosphate pre-treated with 500 mM potassium phosphate
  % Adsorption: 65 ± 4%
[5]; aluminium phosphate, no potassium phosphate pre-treatment (0 mM), 0.4 mg/ml compound, 3 mg/ml Al3+, 10 mM histidine pH 6.5, listed as L-arginine salt
  % Adsorption: 97% and 97 ± 1%
[6]
  adsorption efficiency: 99%
[7]; 0.125 mg/ml arginine salt
  Adsorption: around 90%
[7]; 0.25 mg/ml arginine salt
  Adsorption: around 90%
[8]
  anti-RSV titers versus Al—H alone: increased compared to Al—H alone
  anti-RSV titers, arginine salt versus free base: slightly higher titers than the free base

## Cc1cc(OCCOCCOCCP(=O)(O)O)ccc1CCc1cnc2c(N)nc3cc(CCC(=O)O)ccc3c2c1 [free base, 3-(5-amino-2-(2-methyl-4-(2-(2-(2-phosphonoethoxy)ethoxy)ethoxy)phenethyl)benzo[f][1,7]naphthyridin-8-yl)propanoic acid]
[1]
  degradation (photo-stability): 12.36%
[2]
  degradation (photo-stability in solution): 23.1%
[3]
  degradation (thermal-stability): 18.1%
[9]
  AUC(0-t): 4.54 µM·h
  Cmax: 453 nM
  Tmax: 0.67 h
  half-life: 8.48 h
[10]
  peak serum concentrations: reduced
  residence times at sites of intramuscular injection: increased
[8]
  anti-RSV titers versus Al—H alone: increased compared to Al—H alone

## Cc1cc(OCCOCCOCCP(=O)(O)O)ccc1CCc1cnc2c(N)nc3cc(CCC(=O)O)ccc3c2c1 [ammonium salt]
[1]
  degradation (photo-stability): 4.6%
